Source: patent US11242537B2, “Method for improving sensitivity of plant to gibberellin inhibitor and use thereof” (CHINA AGRICULTURAL UNIVERSITY, priority 2017, dated 2022)

Key:
[1] = test system: pSuper1300::ga1-5; test: Effect of DPC on plant height (step 4.1), empty vector pSuper1300::ga1-5; format: in vivo, Arabidopsis thaliana; conditions: for Plant height: 12 days; for Plant height reduction rate: relative to 0 mg/L
Procedure: (§1) In the following examples, the growth conditions of Arabidopsis thaliana are: culturing in a growth chamber with a photoperiod of 16 h light/8 h dark, a light intensity of 60 μmol/m^2/s, a humidity of 60%-70%, and a temperature of 22° C.
(§2) The experiment was repeated three times, and the specific steps of each repeated experiment were as follows:
(§3) Thirty homozygous line plants of the HRP::ga1-1 of step 2 were randomly selected and randomly divided into three groups, ten plants in each group. On the 33rd day of sowing (the day of sowing was recorded as the first day of sowing), the plants of these three groups were treated as follows, respectively one group was sprayed with water (i.e., 0 mg/L DPC solution) and cultured for 12 days to obtain untreated HRP::ga1-1; one group was sprayed with 30 mg/L DPC solution and cultured for 12 days to obtain 30 mg/L DPC-treated HRP::ga1-1; the last group was sprayed with 500 mg/L aqueous DPC solution and cultured for 12 days to obtain 500 mg/L DPC-treated HRP::ga1-1.
(§4) According to the above method, the homozygous line plants of the HRP::ga1-1 were replaced with the homozygous line plants of the HRP::ga1-5, the homozygous line plants of the ZmCPS::ga1-1, the homozygous line plants of the ZmCPS::ga1-5, the homozygous line plants of the PsSuper1300::ga1-1 and the homozygous line plants of the PsSuper1300::ga1-5 respectively, the other steps were unchanged, and untreated HRP::ga1-5, 30 mg/L DPC-treated HRP::ga1-5, 500 mg/L DPC-treated HRP::ga1-5, untreated ZmCPS::ga1-1, 30 mg/L DPC-treated ZmCPS::ga1-1, 500 mg/L DPC-treated ZmCPS::ga1-1, untreated ZmCPS::ga1-5, 30 mg/L DPC-treated ZmCPS::ga1-5, 500 mg/L DPC-treated ZmCPS::ga1-5, untreated PsSuper1300::ga1-1, 30 mg/L DPC-treated PsSuper1300::ga1-1, 500 mg/L DPC-treated PsSuper1300::ga1-1, untreated PsSuper1300::ga1-5, 30 mg/L DPC-treated PsSuper1300::ga1-5 and 500 mg/L DPC-treated PsSuper1300::ga1-5 were obtained, respectively.
(§5) The plant heights of the above Arabidopsis thaliana before the treatment (FIG. 1) and after different treatments (FIG. 2 and Table 2) were measured.

[2] = test system: HRP::ga1-1; test: Effect of DPC on plant height of transgenic Arabidopsis thaliana (step 4.1), HRP::ga1-1; format: in vivo; conditions: for Plant height reduction rate / Plant height: HRP::ga1-1; for Plant height reduction rate: relative to 0 mg/L DPC-treated plant; for Plant height: cultured 12 days
Procedure: as §1, §2, §3, §5

[3] = test system: B73 (WT); test: Sensitivity of wild type maize B73 to DPC; format: in vivo; conditions: 500 ppm (5 mM) DPC spray
Procedure: (§6) The WT and transgenic plants were sprayed with DPC during jointing stage to test their DPC sensitivity: the whole plant was sprayed with 500 ppm […] DPC when the maize was grown to 7 leaf expansion phase and 12 leaf expansion phase. Plant height and ear height were measured 2 weeks after treatment and after tasseling.

[4] = test system: maize Zhengdan 958; conditions: 1000 mg/L DPC (Chen yin, 2012); cited from earlier work
[5] = test system: ZmCPS::ga1-5; test: Effect of DPC on plant height (step 4.1), ZmCPS::ga1-5; format: in vivo, Arabidopsis thaliana; conditions: for Plant height: 12 days; for Plant height reduction rate: relative to 0 mg/L
Procedure: as §1, §2, §3, §4, §5

[6] = test system: HRP::ga1-5; test: Effect of DPC on plant height (step 4.1), HRP::ga1-5; format: in vivo, Arabidopsis thaliana; conditions: for Plant height / Plant height reduction rate: HRP::ga1-5; for Plant height: 12 days; for Plant height reduction rate: relative to 0 mg/L
Procedure: as §1, §2, §3, §4, §5

[7] = test system: transgenic zmcps-ko line with the HRP, line No. 614; test: Sensitivity of transgenic zmcps-ko line with the HRP to DPC, line No. 614; format: in vivo, maize; conditions: 500 ppm (5 mM) DPC spray
Text: The GV3101-pSuper1300-HRP of Example 1 was transformed into the ZmCPSKO maize embryos of step 1.1 by using the Agrobacterium to infect the maize immature embryos, and positive transgenic maize with the HRP was obtained by screening, and the transgenic maize with the HRP contained the target gene HRP. The GV3101-pSuper1300-ZmCPS and GV3101-pSuper1300 were used as controls, and the ZmCPS control maize and empty vector control maize were obtained, respectively.
as §6

In the case of C[N+]1(C)CCCCC1.[Cl-] [DPC, 1,1-dimethylpiperidinium chloride], the Plant height ([1]; 30 mg/L DPC spray) is reported as 6.54 ± 0.20 cm, the “Plant height reduction rate” value ([1]; 30 mg/L DPC) is reported as 5.90% and the Plant height ([1]; 500 mg/L DPC spray) is reported as 6.21 ± 0.14 cm. For the same compound, the “Plant height reduction rate” value ([1]; 500 mg/L DPC) was 10.65%, the “Plant height of HRP::ga1-1 as multiple of correspondingly treated ZmCPS::ga1-1” value ([2]; 30 mg/L DPC) was 0.68 times and the “Plant height of HRP::ga1-1 as multiple of correspondingly treated ga1-1” value ([2]; 30 mg/L DPC) was 2.71 times. The “Plant height reduction rate of HRP::ga1-1 as multiple of that of ga1-1” value ([2]; 30 mg/L DPC) was 2.49 times, the “Plant height of HRP::ga1-1 as multiple of correspondingly treated ZmCPS::ga1-1” value ([2]; 500 mg/L DPC) was 0.41 times and the “Plant height of HRP::ga1-1 as multiple of correspondingly treated ga1-1” value ([2]; 500 mg/L DPC) was 1.71 times. The “Plant height reduction rate of HRP::ga1-1 as multiple of that of ga1-1” value ([2]; 500 mg/L DPC) was 3.47 times, the “Plant height reduction rate” value ([2]; 30 mg/L DPC) was 33.92% and the “Plant height reduction rate” value ([2]; 500 mg/L DPC) was 60.18%. For the same compound, the Plant height ([2]; sprayed with 30 mg/L DPC on 33rd day of sowing) was 11.2 ± 0.24 cm, the Plant height ([2]; sprayed with 500 mg/L DPC on 33rd day of sowing) was 6.75 ± 0.38 cm and the Ear height ([3]; B73 wild type) was 91.3. The “Plant height at 2 weeks after treatment” value ([3]; B73 wild type) was 151, the “Plant height at tasseling stage” value ([3]; B73 wild type) was 207.5 and the “Sensitivity of the plant to DPC (in words)” value ([3]; WT (B73)) was “insensitive”. For the same compound, the “Plant height and stem diameter compared with control” value [4] was “no significant difference”, the Plant height ([5]; 30 mg/L DPC spray) was 16.79 ± 0.13 cm and the “Plant height reduction rate” value ([5]; 30 mg/L DPC) was 0.06%. The Plant height ([5]; 500 mg/L DPC spray) was 16.66 ± 0.31 cm, the “Plant height reduction rate” value ([5]; 500 mg/L DPC) was 0.83% and the “Effect of DPC on plant height (in words)” value ([5]; 30 and 500 mg/L DPC) was “no effect”. The “Plant height of HRP::ga1-5 as multiple of correspondingly treated ZmCPS::ga1-5” value ([6]; 30 mg/L DPC) was 0.64 times, the “Plant height of HRP::ga1-5 as multiple of correspondingly treated ga1-5” value ([6]; 30 mg/L DPC) was 1.65 times and the “Plant height reduction rate of HRP::ga1-5 as multiple of that of ga1-5” value ([6]; 30 mg/L DPC) was 4.68 times. The “Plant height of HRP::ga1-5 as multiple of correspondingly treated ZmCPS::ga1-5” value ([6]; 500 mg/L DPC) was 0.38 times, the “Plant height of HRP::ga1-5 as multiple of correspondingly treated ga1-5” value ([6]; 500 mg/L DPC) was 1.00 times and the “Plant height reduction rate of HRP::ga1-5 as multiple of that of ga1-5” value ([6]; 500 mg/L DPC) was 6.66 times. For the same compound, the Plant height ([6]; 30 mg/L DPC spray) was 10.80 ± 0.43 cm, the “Plant height reduction rate” value ([6]; 30 mg/L DPC) was 31.99% and the Plant height ([6]; 500 mg/L DPC spray) was 6.41 ± 0.18 cm. The “Plant height reduction rate” value ([6]; 500 mg/L DPC) was 59.63%, the Ear height [7] was 80.5 and the “Plant height at 2 weeks after treatment” value [7] was 133.2.
